Reference: patent US12629419B2, “Prevention or mitigation of T-cell engaging agent-related adverse effects” (Hoffmann-La Roche Inc., priority 2020, dated 2026)
“Also recorded” adds a separate entry of the source.

Key:
[1] = tested on: CEA-TCB-induced cytokine release; experiment: CEA-TCB-induced cytokine release (Luminex, supernatants); conditions: 72 hrs; 10 nM CEA-TCB; concentrations 50 nM to 1 μM
Method: The levels of cytokines were measured by Luminex in the supernatants of the assay to determine the impact of the different compounds on CEA-TCB-induced cytokine release.

[2] = tested on: MKN45 NucLight Red (NLR) target cells; experiment: killing assay with PBMCs, MKN45 NLR target cells and CEA-TCB (Incucyte); assay type: cell-based
CD4+ and CD8+ T cells [3] = experiment: T cell activation (CD25, CD69 by flow cytometry) in CEA-TCB killing assay; assay type: cell-based; conditions: 10 nM CEA-TCB
[4] = cited from earlier work
CD20+ B cells = experiment: CD19-TCB-induced B cell depletion in humanized NSG mice; assay type: in vivo
Description: FIG. 81. In vivo experiment timelines and dosing schedule.
To best reproduce the pharmacodynamic profile of ruxolitinib, dasatinib and sirolimus in the clinic and to verify whether the resulting exposure would be sufficient to prevent CD19-TCB-induced cytokine release, dasatinib and ruxolitinib were given per os twice per day, and sirolimus was given per os twice per day on day 1 and then once per day.
At 48 hrs and 72 hrs, blood was collected by tail-vein bleeding and the CD20+ B cell count was measured by flow cytometry (FIGS. 82A and B) to assess the effect of the different treatments on CD19-TCB-induced B cell depletion. […] Its half-life being around 6-7 hrs and dasatinib being given only twice per day, a lack of exposure could likely explain that CD19-TCB was partially active, resulting in B cell depletion. At experiment termination (72 hrs), spleens were collected and the B cell count was measured by flow-cytometry (FIG. 83). […] However, their inhibitory effect was stronger than methylprednisolone (FIG. 83).

[5] = tested on: CD19-TCB-induced cytokine release; experiment: CD19-TCB-induced cytokine release in SUDLH-8 assay (Luminex); assay type: cell-based; conditions: 24 hrs; 100 nM inhibitor
Method: (§1) PBMCs were co-cultured together with CellTrace™ Violet (CTV) labelled SUDLH-8 tumor cells and escalating concentrations of CD19-TCB in the presence of the different kinase inhibitors, including also the Src inhibitor dasatinib (FIG. 64). At assay endpoint (24 hrs), the killing of CTV labelled SUDLH-8 cells was measured by flow cytometry by exclusion of the dead SUDLH-8 cells with a Live/Dead stain. […] Lastly, the levels of cytokines were measured in the supernatants of the assay to evaluate the effect of mTOR, JAK and Src inhibitors on CD19-TCB-induced cytokine release.
(§2) At assay endpoint (24 hrs), the killing of CTV labelled SUDLH-8 cells was measured by flow cytometry by exclusion of the dead SUDLH-8 cells with a Live/Dead stain. […] Lastly, the levels of cytokines were measured in the supernatants of the assay to assess the effect of the JAK inhibitors on CD19-TCB-induced cytokine release.
as §2, with “stain to evaluate the effect of the different mitigation approaches on CD19-TCB-dependent killing.” for “stain.”, “address” for “assess”

SUDLH-8 tumor cells = experiment: killing assay with PBMCs, CTV labelled SUDLH-8 tumor cells and CD19-TCB; assay type: cell-based; conditions: 24 hrs; 100 nM kinase inhibitors or dexamethasone, 5 μg/mL antibodies
Method: FIG. 64. In vitro killing assay set-up. PBMCs were co-cultured with CellTrace™ Violet (CTV) labelled SUDLH-8 tumor cells (E:T=10:1) in the presence of escalating concentrations of CD19-TCB in media supplemented with the different kinase inhibitors (100 nM) for 24 hrs.
FIG. 69. In vitro killing assay set-up. PBMCs were co-cultured with CTV labelled SUDLH-8 cells (E:T=10:1) in the presence of escalating concentrations of CD19-TCB in media supplemented with the different JAK inhibitors (100 nM) for 24 hrs.
FIG. 73. In vitro killing assay set-up.
as §1, §2
as §2, with “stain to evaluate the effect of the different mitigation approaches on CD19-TCB-dependent killing.” for “stain.”, “address” for “assess”

WSU DLCL2 tumor cells = experiment: killing assay with PBMCs, CTV labelled WSU DLCL2 tumor cells and CD20-TCB; assay type: cell-based; conditions: 24 hours
Method: FIG. 13. In vitro killing assay set-up.
FIG. 14. […] At 24 hours, the tumor cells and PBMCs from technical replicates were pooled and stained with a LIVE/DEAD™ Near-IR dead cell dye to allow exclusion of dead CTV labelled WSU DLCL2 tumor cells by flow cytometry. Mean of n=3 donors+/−SEM.
(§3) A similar experiment was conducted with another TCB. WSU DLCL2 cells were co-cultured together with PBMCs in the presence of 1 nM CD20-TCB (SEQ ID NOs 4-11, 24-35), and escalating sirolimus doses ranging from 0 nM to 1000 nM (FIG. 13).
(§4) A similar experiment was conducted with another TCB. […] The killing of B cells was measured as a readout for the impact of the various compounds on TCB efficacy at 24 h (FIGS. 27 and 28). […] Lastly, the levels of cytokines (TNF-α, IFN-γ, IL-2, IL-6, IL-4, IL-10, GM-CSF and IL-1β) were analyzed by Luminex at assay endpoint to assess the impact of the different treatments on TCB-induced cytokine release (FIGS. 32 and 33).
(§5) At 24 hours, tumor cell killing was measured by flow cytometry by exclusion of dead CTV cells. The supernatants were collected and cytokines were measured by Luminex.

[6] = tested on: A375 NucLight Red (NLR) target-cells; experiment: killing assay with PBMCs, A375 NLR target cells and MAGEA4-TCB (Incucyte); assay type: cell-based; conditions: 25 nM MAGEA4-TCB; 0 nM to 100 nM
[7] = tested on: MAGEA4-TCB-induced cytokine release; experiment: MAGEA4-TCB-induced cytokine release; assay type: cell-based; conditions: 25 nM MAGEA4-TCB; 0 nM to 100 nM
Method: FIG. 45. Effect of escalating concentrations (c) of ruxolitinib on IFN-γ (A), IL-2 (B), TNF-α (C), GM-CSF (D), IL-6 (E), IL-1β (F), IL-8 (G), MCP-1 (H) and IL-10 (I) levels induced by 8 nM MAGEA4-TCB. At 72 hours, the supernatants were collected and cytokines were analyzed by cytometric bead array (CBA). Mean of technical replicates+/−SD for 1 representative donor.
FIG. 47. […] At 72 hours, the supernatants were collected and cytokines were analyzed by CBA. Mean of technical replicates+/−SD for 1 representative donor.
The effect of ruxolitinib on TCB-induced tumor cell killing and cytokine release was assessed using an additional TCB, the MAGEA4-TCB (SEQ ID NOs 37-56).

[8] = tested on: CD20-TCB-induced cytokine release; experiment: CD20-TCB-induced cytokine release (Luminex); assay type: cell-based; conditions: 24 hours; CD20-TCB; escalating doses
Method: A similar experiment was conducted with another TCB.
(§6) A similar experiment was conducted with CD20-TCB.
(§7) A similar experiment was conducted with CD20-TCB. WSU DLCL2 cells were co-cultured together with PBMCs in the presence of 1 nM CD20-TCB, and escalating everolimus doses ranging from 0 nM to 1000 nM (FIG. 13).
(§8) A similar experiment was conducted with CD20-TCB. WSU DLCL2 cells were co-cultured together with PBMCs in the presence of 1 nM CD20-TCB, and escalating ruxolitinib doses ranging from 0 nM to 1000 nM (FIG. 13).
as §4, §5

CD4+ and CD8+ T cells [9] = experiment: T cell activation (CD25, CD69) in CD20-TCB killing assay; assay type: cell-based; conditions: 24 hours, concentrations 0 nM to 100 nM
CD4+ and CD8+ T cells [10] = experiment: as above; assay type: cell-based; conditions: 24 hours; CD20-TCB; concentration of 1 μM
Method: as §3, §6, §7, §8, §4, §5

## Cc1cnc(Nc2ccc(OCCN3CCCC3)cc2)nc1Nc1cccc(S(=O)(=O)NC(C)(C)C)c1 [fedratinib, Fedratinib]
[1]
  levels of IFN-γ, IL-2, TNF-α, IL-6 and IL-8: reduced
[2]; doses below 1 μM
  MKN45 NLR target cell killing by 10 nM CEA-TCB: only a minor effect
[2]; inhibitor doses 12.5 nM to 1 μM, 50 000 PBMCs: 5 000 target cells, Incucyte
  MKN45 NLR target cell killing by 10 nM CEA-TCB: only partially reduced
CD4+ and CD8+ T cells [3]; 72 hrs, concentrations below 1 μM
  expression of CD69 and CD25 on CD4+ T cells and CD8+ T cells: did not affect

## Cc1nc(Nc2ncc(C(=O)Nc3c(C)cccc3Cl)s2)cc(N2CCN(CCO)CC2)n1 [dasatinib]
[4]
  half-life: 6 to 7 h

## obinutuzumab
CD20+ B cells; 48 hrs and 72 hrs, 0.5 mg/kg CD19-TCB i.v., obinutuzumab pre-treatment 30 mg/kg i.v.
  depletion of B cells in blood (CD20+ B cell count): complete depletion
CD20+ B cells; 72 hrs (termination)
  CD19-TCB-induced CD20+ B cell depletion in the spleen: complete depletion

## C[C@@H]1CCN(C(=O)CC#N)C[C@@H]1N(C)c1ncnc2[nH]ccc12 [tofacitinib, Tofacitinib]
[5]
  CD19-TCB-induced IFN-γ, TNF-α, IL-6 and GM-CSF release: prevented
  CD19-TCB-induced cytokine release: as potent as ruxolitinib
SUDLH-8 tumor cells
  CD19-TCB-dependent killing of CTV labelled SUDLH-8 cells: did not prevent

## CCS(=O)(=O)N1CC(CC#N)(n2cc(-c3ncnc4[nH]ccc34)cn2)C1 [baricitinib, Baricitinib]
WSU DLCL2 tumor cells; concentration of 1 μM
  CD20-TCB induced tumor cell killing: slightly reduced
WSU DLCL2 tumor cells; concentrations 0 nM to 100 nM
  CD20-TCB-induced tumor cell killing: did not impair; also recorded: did not prevent
[5]
  CD19-TCB-induced IFN-γ, TNF-α, IL-6 and GM-CSF release: prevented
  CD19-TCB-induced cytokine release: as potent as ruxolitinib
[6]
  MAGEA4-TCB-induced tumor cell killing: comparable to ruxolitinib
[7]
  MAGEA4-TCB-induced GM-CSF, IL-2, IFN-γ, TNF-α, IL-1β and IL-6 release: comparable to ruxolitinib
[8]
  levels of IFN-γ, TNF-α, GM-CSF, IL-6 and IL-8: reduced
SUDLH-8 tumor cells
  CD19-TCB-dependent killing of CTV labelled SUDLH-8 cells: did not prevent
CD4+ and CD8+ T cells [9]
  T cell activation (CD25 and CD69 on CD4+ and CD8+ T cells): did not impair; also recorded: did not prevent
CD4+ and CD8+ T cells [10]
  T cell activation: slightly reduced
CD4+ and CD8+ T cells [3]; 72 hours, escalating concentrations, comparably to ruxolitinib
  expression of CD25 on CD4+ and CD8+ T cells: reduced
